Source: patent US20250171438A1 (Agios Pharmaceuticals, Inc., priority 2022, published 2025)

Biological target: T1, human PAH with the R408W mutation (Homo sapiens, UniProt P00439, R408W)
T1 construct: expressed in transfected cells
T1 sequence (P00439 1-452 R408W): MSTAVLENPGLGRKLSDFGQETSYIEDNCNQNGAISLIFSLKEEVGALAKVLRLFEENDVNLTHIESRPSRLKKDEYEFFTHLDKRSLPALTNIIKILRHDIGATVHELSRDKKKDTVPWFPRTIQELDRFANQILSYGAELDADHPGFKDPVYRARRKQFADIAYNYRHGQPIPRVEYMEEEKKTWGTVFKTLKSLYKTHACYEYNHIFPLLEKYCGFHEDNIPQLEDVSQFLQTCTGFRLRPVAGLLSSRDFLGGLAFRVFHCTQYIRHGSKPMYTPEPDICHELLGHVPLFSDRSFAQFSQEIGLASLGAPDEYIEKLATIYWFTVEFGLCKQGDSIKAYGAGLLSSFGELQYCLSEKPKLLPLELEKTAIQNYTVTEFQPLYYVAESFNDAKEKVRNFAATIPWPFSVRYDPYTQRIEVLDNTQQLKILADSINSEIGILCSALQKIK
Assay: Cell Based Phenylalanine Flux Assay
Conditions: A375 cells expressing human R408W PAH; 24 hrs compound incubation; 13C-Tyrosine by LC-MS; average where tested multiple times; read-out: AC50

First: O=C(CC1CC(F)(F)C1)N1CCc2[nH]cnc2[C@H]1c1nc2ccccc2s1 [Example 1277]
Second: O=C(CC1CC(F)(F)C1)N1CCc2[nH]cnc2[C@@H]1c1nc2ccccc2s1 [Example 1278, (R)-1-(4-(benzo[d]thiazol-2-yl)-6,7-dihydro-1H-imidazo[4,5-c]pyridin-5(4H)-yl)-2-(3,3-difluorocyclobutyl)ethanone]
The AC50 of the first is lower: under 500 nM for the first, 1000 to 5000 nM for the second.

`O=C(c1ncco1)N1CCc2[nH]cnc2[C@H]1c1nc2cccc(F)c2s1` [Example 1279, (S)-(4-(7-fluorobenzo[d]thiazol-2-yl)-6,7-dihydro-1H-imidazo[4,5-c]pyridin-5(4H)-yl)(oxazol-2-yl)methanone] and `O=C(c1ncco1)N1CCc2[nH]cnc2[C@@H]1c1nc2cccc(F)c2s1` [Example 1280, (R)-(4-(7-fluorobenzo[d]thiazol-2-yl)-6,7-dihydro-1H-imidazo[4,5-c]pyridin-5(4H)-yl)(oxazol-2-yl)methanone] fall in the same range of AC50: 1000 to 5000 nM for the first, 1000 to 5000 nM for the second.

Compared with `O=C(c1cnn2ccc(Br)cc12)N1CCc2[nH]cnc2[C@H]1c1nc2cc(F)ccc2s1` [Example 1281], `O=C(c1cnn2ccc(Br)cc12)N1CCc2[nH]cnc2[C@@H]1c1nc2cc(F)ccc2s1` [Example 1282, (R)-(5-bromopyrazolo [1,5-a]pyridin-3-yl)(4-(5-fluorobenzo[d]thiazol-2-yl)-6,7-dihydro-1H-imidazo[4,5-c]pyridin-5(4H)-yl)methanone] is higher in AC50: 500 to 1000 nM for the first, 1000 to 5000 nM for the second.

Compared with `O=C(c1cnn2ccc(Br)cc12)N1CCc2[nH]cnc2[C@H]1c1nc2cccc(F)c2s1` [Example 1283], `O=C(c1cnn2ccc(Br)cc12)N1CCc2[nH]cnc2[C@@H]1c1nc2cccc(F)c2s1` [Example 1284, (R)-(5-bromopyrazolo[1,5-a]pyridin-3-yl)(4-(7-fluorobenzo[d]thiazol-2-yl)-6,7-dihydro-1H-imidazo[4,5-c]pyridin-5(4H)-yl)methanone] is higher in AC50: under 500 nM for the first, 1000 to 5000 nM for the second.

First: Cc1ccc2sc([C@@H]3c4nc[nH]c4CCN3C(=O)c3cncs3)nc2c1 [Example 1293, (S)-(4-(5-methylbenzo[d]thiazol-2-yl)-6,7-dihydro-1H-imidazo[4,5-c]pyridin-5(4H)-yl)(thiazol-5-yl)methanone]
Second: Cc1ccc2sc([C@H]3c4nc[nH]c4CCN3C(=O)c3cncs3)nc2c1 [Example 1294, (R)-(4-(5-methylbenzo[d]thiazol-2-yl)-6,7-dihydro-1H-imidazo[4,5-c]pyridin-5(4H)-yl)(thiazol-5-yl)methanone]
The AC50 of the first is lower: 500 to 1000 nM for the first, 1000 to 5000 nM for the second.

First: Cc1ccc2c(C(=O)N3CCc4[nH]cnc4[C@H]3c3nc4c(C)cccc4s3)cnn2c1 [Example 1295, (S)-(4-(4-methylbenzo[d]thiazol-2-yl)-6,7-dihydro-1H-imidazo[4,5-c]pyridin-5(4H)-yl)(6-methylpyrazolo[1,5-a]pyridin-3-yl)methanone]
Second: Cc1ccc2c(C(=O)N3CCc4[nH]cnc4[C@@H]3c3nc4c(C)cccc4s3)cnn2c1 [Example 1296, (R)-(4-(4-methylbenzo[d]thiazol-2-yl)-6,7-dihydro-1H-imidazo[4,5-c]pyridin-5(4H)-yl)(6-methylpyrazolo[1,5-a]pyridin-3-yl)methanone]
The AC50 of the first is lower: 500 to 1000 nM for the first, 1000 to 5000 nM for the second.

First: O=C(c1nc(Cl)cs1)N1CCc2[nH]cnc2[C@H]1c1nc2cc(F)ccc2s1 [Example 1297]
Second: O=C(c1nc(Cl)cs1)N1CCc2[nH]cnc2[C@@H]1c1nc2cc(F)ccc2s1 [Example 1298, (R)-(4-chlorothiazol-2-yl)(4-(5-fluorobenzo[d]thiazol-2-yl)-6,7-dihydro-1H-imidazo[4,5-c]pyridin-5(4H)-yl)methanone]
The AC50 of the first is lower: 500 to 1000 nM for the first, 1000 to 5000 nM for the second.

`O=C(c1nncs1)N1CCc2[nH]cnc2[C@H]1c1nc2cc(F)ccc2s1` [Example 1299, (S)-(4-(5-fluorobenzo[d]thiazol-2-yl)-6,7-dihydro-1H-imidazo[4,5-c]pyridin-5(4H)-yl)(1,3,4-thiadiazol-2-yl)methanone] and `O=C(c1nncs1)N1CCc2[nH]cnc2[C@@H]1c1nc2cc(F)ccc2s1` [Example 1300, (R)-(4-(5-fluorobenzo[d]thiazol-2-yl)-6,7-dihydro-1H-imidazo[4,5-c]pyridin-5(4H)-yl)(1,3,4-thiadiazol-2-yl)methanone] fall in the same range of AC50: 1000 to 5000 nM for the first, 1000 to 5000 nM for the second.

`O=C(c1cnn2ccc(Cl)cc12)N1CCc2[nH]cnc2[C@H]1c1nc2cccc(F)c2s1` [Example 1301] and `O=C(c1cnn2ccc(Cl)cc12)N1CCc2[nH]cnc2[C@@H]1c1nc2cccc(F)c2s1` [Example 1302, (R)-(5-chloropyrazolo[1,5-a]pyridin-3-yl)(4-(7-fluorobenzo[d]thiazol-2-yl)-6,7-dihydro-1H-imidazo[4,5-c]pyridin-5(4H)-yl)methanone] cannot be ordered by AC50: under 500 nM for the first, under 500 nM for the second.

First: Cc1ccc2nc([C@@H]3c4nc[nH]c4CCN3C(=O)c3cncs3)sc2c1 [Example 1303, (S)-(4-(6-methylbenzo[d]thiazol-2-yl)-6,7-dihydro-1H-imidazo[4,5-c]pyridin-5(4H)-yl)(thiazol-5-yl)methanone]
Second: Cc1ccc2nc([C@H]3c4nc[nH]c4CCN3C(=O)c3cncs3)sc2c1 [Example 1304, (R)-(4-(6-methylbenzo[d]thiazol-2-yl)-6,7-dihydro-1H-imidazo[4,5-c]pyridin-5(4H)-yl)(thiazol-5-yl)methanone]
The AC50 of the first is lower: 500 to 1000 nM for the first, over 5000 nM for the second.

First: Cc1cccc2sc([C@@H]3c4nc[nH]c4CCN3C(=O)c3cncs3)nc12 [Example 1305, (S)-(4-(4-methylbenzo[d]thiazol-2-yl)-6,7-dihydro-1H-imidazo[4,5-c]pyridin-5(4H)-yl)(thiazol-5-yl)methanone]
Second: Cc1cccc2sc([C@H]3c4nc[nH]c4CCN3C(=O)c3cncs3)nc12 [Example 1306, (R)-(4-(4-methylbenzo[d]thiazol-2-yl)-6,7-dihydro-1H-imidazo[4,5-c]pyridin-5(4H)-yl)(thiazol-5-yl)methanone]
The AC50 of the first is lower: 500 to 1000 nM for the first, 1000 to 5000 nM for the second.

First: O=C(CC1CCC1)N1CCc2[nH]cnc2[C@H]1c1nc2ccccc2s1 [Example 1307]
Second: O=C(CC1CCC1)N1CCc2[nH]cnc2[C@@H]1c1nc2ccccc2s1 [Example 1308, (R)-1-(4-(benzo[d]thiazol-2-yl)-6,7-dihydro-1H-imidazo[4,5-c]pyridin-5(4H)-yl)-2-cyclobutylethanone]
The AC50 of the first is lower: under 500 nM for the first, 1000 to 5000 nM for the second.

First: COCc1ccc2c(C(=O)N3CCc4[nH]cnc4[C@H]3c3nc4ccccc4s3)cnn2c1 [Example 1309]
Second: COCc1ccc2c(C(=O)N3CCc4[nH]cnc4[C@@H]3c3nc4ccccc4s3)cnn2c1 [Example 1310, (R)-(4-(benzo[d]thiazol-2-yl)-6,7-dihydro-1H-imidazo[4,5-c]pyridin-5(4H)-yl)(6-(methoxymethyl)pyrazolo[1,5-a]pyridin-3-yl)methanone]
The AC50 of the first is lower: 500 to 1000 nM for the first, over 5000 nM for the second.

First: CN(C)Cc1ccc2c(C(=O)N3CCc4[nH]cnc4[C@H]3c3nc4ccccc4s3)cnn2c1 [Example 1311]
Second: CN(C)Cc1ccc2c(C(=O)N3CCc4[nH]cnc4[C@@H]3c3nc4ccccc4s3)cnn2c1 [Example 1312, (R)-(4-(benzo[d]thiazol-2-yl)-6,7-dihydro-1H-imidazo[4,5-c]pyridin-5(4H)-yl)(6-((dimethylamino)methyl)pyrazolo[1,5-a]pyridin-3-yl)methanone]
The AC50 of the first is lower: 500 to 1000 nM for the first, over 5000 nM for the second.

Compared with `O=C(c1cnn2cc(CN3CCC(F)(F)C3)ccc12)N1CCc2[nH]cnc2[C@H]1c1nc2ccccc2s1` [Example 1313], `O=C(c1cnn2cc(CN3CCC(F)(F)C3)ccc12)N1CCc2[nH]cnc2[C@@H]1c1nc2ccccc2s1` [Example 1314, (R)-(4-(benzo[d]thiazol-2-yl)-6,7-dihydro-1H-imidazo[4,5-c]pyridin-5(4H)-yl)(6-((3,3-difluoropyrrolidin-1-yl)methyl)pyrazolo[1,5-a]pyridin-3-yl)methanone] is higher in AC50: 500 to 1000 nM for the first, over 5000 nM for the second.

First: Cc1cccc2nc([C@H]3c4nc[nH]c4CCN3C(=O)c3cncs3)sc12 [Example 1315, (R)-(4-(7-methylbenzo[d]thiazol-2-yl)-6,7-dihydro-1H-imidazo[4,5-c]pyridin-5(4H)-yl)(thiazol-5-yl)methanone]
Second: Cc1cccc2nc([C@@H]3c4nc[nH]c4CCN3C(=O)c3cncs3)sc12 [Example 1316, (S)-(4-(7-methylbenzo[d]thiazol-2-yl)-6,7-dihydro-1H-imidazo[4,5-c]pyridin-5(4H)-yl)(thiazol-5-yl)methanone]
The AC50 of the first is higher: 1000 to 5000 nM for the first, under 500 nM for the second.

First: O=C(c1cnc(-c2ccccn2)o1)N1CCc2[nH]cnc2[C@H]1c1nc2ccccc2s1 [Example 1317]
Second: O=C(c1cnc(-c2ccccn2)o1)N1CCc2[nH]cnc2[C@@H]1c1nc2ccccc2s1 [Example 1318, (R)-(4-(benzo[d]thiazol-2-yl)-6,7-dihydro-1H-imidazo[4,5-c]pyridin-5(4H)-yl)(2-(pyridin-2-yl)oxazol-5-yl)methanone]
The AC50 of the first is lower: under 500 nM for the first, 1000 to 5000 nM for the second.

First: Cc1ncoc1C(=O)N1CCc2[nH]cnc2[C@H]1c1nc2c(F)cccc2s1 [Example 1319, (S)-(4-(4-fluorobenzo[d]thiazol-2-yl)-6,7-dihydro-1H-imidazo[4,5-c]pyridin-5(4H)-yl)(4-methyloxazol-5-yl)methanone]
Second: Cc1ncoc1C(=O)N1CCc2[nH]cnc2[C@@H]1c1nc2c(F)cccc2s1 [Example 1320, (R)-(4-(4-fluorobenzo[d]thiazol-2-yl)-6,7-dihydro-1H-imidazo[4,5-c]pyridin-5(4H)-yl)(4-methyloxazol-5-yl)methanone]
The AC50 of the first is lower: under 500 nM for the first, 1000 to 5000 nM for the second.

`Cc1nc(C)c(C(=O)N2CCc3[nH]cnc3[C@H]2c2nc3c(F)cccc3s2)o1` [Example 1321] showed an AC50 of under 500 nM.
